By melting point is commonly meant the temperature, or range, at which the solid turns liquid.

Take `Cc1c(Cl)c2ccccc2n1S(=O)(=O)c1ncn(S(=O)(=O)N(C)C)n1` [1-33(a), 1-(N,N-dimethylsulfamoyl)-3-(2-methyl-3-chloroindol-1-yl)sulfonyl-1,2,4-triazole]: the melting point was in the range of 120 to 122 °C.

For the molecule `CN(C)S(=O)(=O)n1cnc(S(=O)(=O)n2nc(Cl)c3ccccc32)n1` [7-5(a), 1-(N,N-dimethylsulfamoyl)-3-(3-chloroindazol-1-yl)sulfonyl-1,2,4-triazole], the melting point lay in the range of 164 to 165 °C.

`Cc1c(Cl)c(-c2ccccc2)nn1S(=O)(=O)c1ncn(S(=O)(=O)N(C)C)n1` [8-11(a), 1-(N,N-dimethylsulfamoyl)-3-(3-phenyl-4-chloro-5-methylpyrazol-1-yl)sulfonyl-1,2,4-triazole] displayed a melting point of 125 to 128 °C.

As for `CN(C)S(=O)(=O)n1cnc(C(=O)c2ccc(C(F)(F)F)cc2)n1` [11-19(a), 1-dimethylsulfamoyl-3-(4-trifluoromethylbenzoyl)-1,2,4-triazole], the melting point is 121 to 122 °C.

The record behind these values is patent US7067656B2, “Sulfamoyl compounds and agricultural and horticultural fungicides” (Nissan Chemical Industries, Ltd., priority 1997, dated 2006).
